Measured values reported in publication PMC9024521, “4-Heteroaryl Substituted Amino-3,5-Dicyanopyridines as New Adenosine Receptor Ligands: Novel Insights on Structure-Activity Relationships and Perspectives” (Pharmaceuticals, 2022).

Tests used:
[1] = In vitro permeation, vertical Franz diffusion cell; type: in vitro ADME; settings: cellulose nitrate membrane impregnated with lauryl alcohol, PBS pH 7.4 + Tween 80 2% w/w, 37 °C
Protocol: Compounds 1 and 5 were evaluated for their capability to penetrate the artificial membrane simulating the epidermal barrier. Permeation flux was assessed by using vertical Franz diffusion cells.
Compound assay was performed by HPLC (Merck Hitachi Elite LaChrom apparatus, Darmstadt, Germany), equipped with a L-2400 UV–Vis detector and an L-2130 isocratic pump. The mobile phase A was water, and the mobile phase B was methanol. Gradient steps were programmed as follows: A–B 60%–40% at time 0, ramped to 70% B in 3 min, held at 70% for 2 min and returned to initial conditions during 3 min. A Hibar Purospher® RP-8e (150 × 4.6 mm, 5 µm pore size) was the stationary phase. UV detection was performed at 292 nm. The injection volume was 20 µL, the flow rate was 1.2 mL/min and the column temperature was 40 ± 1 °C. Under these conditions, the compounds retention time was 5.30 ± 0.01 min. The method was validated for linearity (r^2 = 0.998; r^2 = 0.997), limit of quantification (3.03 µg/mL; 4.50 µg/mL) and limit of detection (0.91 µg/mL; 1.35 µg/mL) for P293BL and P297, respectively.
In vitro permeation studies were carried out by using vertical Franz diffusion cell (Rofarma, Gaggiano, Italy). […] A correction for the cumulative dilution, due to the sample replacement with an equal volume of fresh medium, was calculated. […]

hA3AR = target: T1, hA3AR (Homo sapiens, UniProt P0DMS8); assay: Competition binding, [125I]AB-MECA, hA3 CHO cell membranes; settings: displacement of [125I]AB-MECA, hA3 CHO cells; mean ± SEM of four assays
T1 construct: host or cells: CHO cells
T1 sequence (P0DMS8 1-318): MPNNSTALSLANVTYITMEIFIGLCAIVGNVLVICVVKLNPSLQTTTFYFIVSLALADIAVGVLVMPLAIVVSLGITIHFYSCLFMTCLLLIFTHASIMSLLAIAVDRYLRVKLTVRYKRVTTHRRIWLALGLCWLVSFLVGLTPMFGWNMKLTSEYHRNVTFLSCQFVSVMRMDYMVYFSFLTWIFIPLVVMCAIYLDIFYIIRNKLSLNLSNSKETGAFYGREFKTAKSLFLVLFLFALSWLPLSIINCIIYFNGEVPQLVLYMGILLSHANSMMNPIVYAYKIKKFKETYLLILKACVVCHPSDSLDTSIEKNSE
Protocol: CHO cells transfected with hA1, hA2A, hA2B and hA3 ARs (Perkin Elmer, Boston, MA, USA) were grown adherently and maintained in Dulbecco’s modified Eagle’s medium with nutrient mixture F12, containing 10% fetal calf serum, penicillin (100 U/mL), streptomycin (100 μg/mL), L-glutamine (2 mM) and geneticine (G418; 0.2 mg/mL), at 37 °C, in 5% CO2/95% air, until their use in cAMP assays. For membrane preparation, the culture medium was removed, and the cells were washed with phosphate-buffered saline and scraped off T75 flasks in ice-cold hypotonic buffer (5 mM Tris HCl, 1 mM EDTA, pH 7.4). The cell suspension was homogenized with a Polytron, centrifuged for 30 min at 40,000× g, at 4 °C, and the resulting membrane pellet was used for competition binding experiments.
All synthesized compounds were tested for their affinity to hA1, hA2A and hA3 ARs. Competition experiments to hA1AR were carried out by incubating 1 nM [^3H]-8-cyclopentyl-1,3-dipropylxanthine ([^3H]-DPCPX) with membrane suspension (50 μg of protein/100 μL) and different concentrations of the examined compounds at 25 °C for 90 min in 50 mM Tris HCl, pH 7.4. Non-specific binding was defined as binding in the presence of 1 μM DPCPX and was always <10% of the total binding. Inhibition experiments to hA2A ARs were performed by incubating the radioligand [^3H]-4-(-2-[7-amino-2-{2-furyl}{1,2,4}triazolo{2,3-a} {1,3,5}triazin-5-yl-amino]ethyl)phenol ([^3H]-ZM241385) (1 nM) with the membrane suspension (50 μg of protein/100 μL) and different concentrations of the examined compounds for 60 min, at 4 °C, in 50 mM Tris HCl (pH 7.4), 10 mM MgCl2. Non-specific binding was determined in the presence of ZM241385 (1 μM) and was about 20% of the total binding. Competition binding experiments to A3ARs were carried out by incubating the membrane suspension (50 μg of protein/100 μL) with 0.5 nM [^125I]-N6-(4-aminobenzyl)-N-methylcarboxamidoadenosine ([^125I]-ABMECA) in the presence of different concentrations of the examined compounds for an incubation time of 120 min, at 4 °C, in 50 mM Tris HCl (pH 7.4), 10 mM MgCl2, 1 mM EDTA. Non-specific binding was defined as binding in the presence of 1 μM ABMECA and was always <10% of the total binding. Bound and free radioactivity were separated by filtering the assay mixture through Whatman GF/B glass-fiber filters, using a Brandel cell harvester (Brandel Instruments, Unterföhring, Germany). The filter bound radioactivity was counted by Packard Tri Carb 2810 TR scintillation counter (Perkin Elmer).
The protein concentration was determined according to a Bio-Rad method, with bovine albumin as a standard reference. Inhibitory binding constant (Ki) values were calculated from those of IC50 according to the Cheng–Prusoff equation, Ki = IC50/(1 + [C*]/KD*), where [C*] is the concentration of the radioligand, and KD* its dissociation constant. Ki and IC50 values were calculated by non-linear regression analysis, using the equation for a sigmoid concentration-response curve (Graph-PAD Prism, San Diego, CA, USA).

SMILES	amount of permeated drug after 24 h [1] [µg/mL]	Ki (hA3AR) [nM]	melting point [°C]
N#Cc1c(N)nc(SCc2ncc[nH]2)c(C#N)c1-c1ccco1 [Compound 1, 2-Amino-4-(furan-2-yl)-6-[(1H-imidazol-2-ylmethyl)sulfanyl]pyridine-3,5-dicarbonitrile]	15.0 ± 1.4	52 ± 5	–
N#Cc1c(N)nc(SCc2ncc[nH]2)c(C#N)c1-c1cccs1 [Compound 5, 2-Amino-6-[(1H-imidazol-2-ylmethyl)sulfanyl]-4-(thiophen-2-yl)pyridine-3,5-dicarbonitrile]	22.7 ± 1.0	25 ± 2	246 to 248
